From article PMC9321810, “Antiviral Cyclopropane Acids from Deep-Sea-Derived Fungus Aspergillus sydowii” (Marine Drugs, 2022)
Where two headings read alike, the source gives them in different places.

Assays:
in vitro = settings: dog
[1] = system: influenza virus A/WSN/33 (H1N1); assay: cytopathic effect (CPE) reduction assay, anti-influenza virus; assay type: cell-based, influenza A/WSN/33 (H1N1)
[2] = H1N1|WSN, MDCK, 40 h, read-out: IC50, inhibitory activity against influenza virus A/WSN/33 (H1N1), infected MDCK cells, MOI = 0.1, 40 h incubation, CellTiter-Glo readout

Compound | CC50 at 40 h (in vitro) [µM] | IC50 [1, 2] [µM] | IC50 ([1]; read-out: IC50, inhibitory activity against influenza virus A/WSN/33 (H1N1), infected MDCK cells, MOI = 0.1, 40 h incubation, CellTiter-Glo readout) [µM]
CC(=O)CCC1C(C)C1(C)C(=O)O (centres unmarked) [Compound 3, sydocyclopropane C] | > 100 | 77.2 ± 0.5 | –
CCOC(=O)C1=C[C@@H](OC(CC)CC)[C@H](NC(C)=O)[C@@H](N)C1 [OSV, oseltamivir, reference compound] | > 100 | 18.1 ± 1.2 | –
CC(=O)C=CC1C(C)C1(C)C(C)=O (centres unmarked) [Compound 5, hamavellone B] | > 100 | 35.8 ± 3.2 | –
CC(=O)C1(C)C(C)C1CC(=O)O (centres unmarked) [Compound 2, Sydocyclopropane B] | > 100 | 29.5 ± 1.4 | –
CC(=O)CCC1C(C)C1(C)C(=O)O (centres unmarked) [Compound 4, sydocyclopropane D] | – | – | 66.4 ± 1.7
COC(=O)C(O)CC(=O)C1(C)C(C)C1CCC(C)=O (centres unmarked) [Compound 1, sydocyclopropane A] | > 100 | 26.7 ± 0.9 | –
